Test results published in EP0587374A2, “Sulfated sterol glycosides and their use against viral infections” (VIROSTAT (NA) NV, priority 1992, dated 1994).

Tested on: feline immunodeficiency virus (FIV)
Assay: In vivo anti-FIV test in an experimentally infected cat: antibody titer, haematology, lymphocyte subsets
Details: 5 mg/kg s.c. weekly from week 10; for WBC: pre-treatment weeks 0/6: 11.8/13.2; for CD4⁺: pre-treatment weeks 0/6: 460/350; for CD8⁺: pre-treatment weeks 0/6: 1115/721; for CD3⁺: pre-treatment weeks 0/6: 1742/1219; for Lymph.: lymphocytes, pre-treatment weeks 0/6: 2600/2380
Method: The substance was tested at a dosage rate of 5 mg/kg body mass on a cat infected with feline immunodeficiency virus, administered by subcutaneous injection at weekly intervals over a period of 13 weeks.
A cat which had been experimentally infected with a strain of feline immunodeficiency virus (FIV) using the blood of a naturally infected cat was used for this experiment. […] The haematological and immunological parameters were monitored during the dosage period as described below.
A specimen of blood was used to determine the antibody titer to FIV using a commercial kit (CITE Combo, Indexx Corporation, Portland). The serum was diluted with saline solution and each serum diulation was tested in order to determine the highest dilution yielding positive results. This dilution was subsequently used as the cut-off titer of positivity. The titer of antibodies was determined at regular intervals during the treatment period.
Whole blood was diluted by 50% with RPMI medium and layered on to Histopaque (Sigma) and centrifuged at 200 gravities for 25 minutes. The cells at the interface were collected and washed three times with RPMI. These cells represented the mononuclear cells of the blood and were used for determining the percentage of T-cells and the subsets thereof as described hereunder.
Cells (1 x 10⁶) were incubated in test tubes with aliquots of monoclonal antibody reactive with CD3, CD4 and CD8 antigens. The mixtures of different antibodies were conducted as follows: CD3-FITC + CD4-PE CD3-FITC + CD8-PE
The tubes were incubated for 20 minutes at room temperature and following two washes with phosphate-buffered saline solution (PBS), the cells were fixed with 400 µℓ PBS containing 0.5% formaldehyde.
Cell fluoresence was assessed using a FACScan cytometer. […] The analysis was conducted using the LYSIS II software programme after having set a lymphocyte gate on the FSC versus SSC scattergram. All the results were expressed as percentage positive lymphocytes, i.e. cells which co-expressed CD3 and CD4 or CD3 and CD8 markers. In this way, CD4⁺ T cells, and in a similar fashion, CD8⁺ NK cells, were excluded from the CD3⁺ CD8⁺ T-suppressor cells.
Absolute cell numbers were calculated from basic haematology conducted on an aliquot of the whole blood. From the percentage lymphocyte differential counts, absolute values for positive cells could be calculated. This was conducted for all subsets analyzed.

## CC[C@H](CC[C@@H](C)[C@H]1CC[C@H]2[C@@H]3CC=C4C[C@@H](O[C@@H]5O[C@H](COS(=O)(=O)O)[C@@H](OS(=O)(=O)O)[C@H](OS(=O)(=O)O)[C@H]5OS(=O)(=O)O)CC[C@]4(C)[C@H]3CC[C@]12C)C(C)C [BSSG-(SO₄⁻)₄, β-Sitosteryl β-D-glucoside tetra-sulphate]
Time 12 weeks
  WBC: 14.7 x10⁹/ℓ
  CD4⁺: 315 µL
  CD8⁺: 432 µL
  CD3⁺: 964 µL
  Lymph.: 2940 µL
Time 17 weeks
  WBC: 14.0 x10⁹/ℓ
  CD4⁺: 763 µL
  CD8⁺: 1066 µL
  CD3⁺: 2035 µL
  Lymph.: 3220 µL
Time 23 weeks
  WBC: 15.5 x10⁹/ℓ
  CD4⁺: 850 µL
  CD8⁺: 1610 µL
  CD3⁺: 2894 µL
  Lymph.: 3990 µL
